Assay: free release of ethanol from loaded hydrophobic zeolite over time, with parallel evaporation of non-adsorbed ethanol
Format: physicochemical
Details: one gram ethanol not adsorbed to any hydrophobic zeolite, reduced to 0,5 grams
Method: After 12 hours, at 29 degrees C., hydrophobic zeolite Y powder has dropped approximately 70% of its ethanol.
Hydrophobic zeolite Y was loaded with 16 weight per cent ethanol and its free release of ethanol over the time at a surrounding temperature off 29 degrees C. was studied. The result appears in FIG. 1. Which also appears from FIG. 1, the hydrophobic zeolite had, after approximately 5 hours, given the half amount of its ethanol, and was still active.
In a parallel experiment evaporation of 95% ethanol, not adsorbed to any hydrophobic zeolite, was measured. One gram of this ethanol had after 8 minutes been reduced through evaporation to 0,5 grams, i e to half the amount. This is a drastic difference compared with ethanol which is adsorbed to hydrophobic zeolite. If the experiment had been executed with 99.5% ethanol instead of 95% it would presumably have been even smaller. Through the hydrophobic zeolite composition the skin is exposed to ethanol vapour during 50 times's longer time as in a normal sponging.
The mentioned hydrophobic zeolite loaded with ethanol gives a vapour that is near 100% ethanol in composition. The ethanol vapour can aggressively attack skin bacteria's in their hydrophobic environment during relatively long time.

time until reduced through evaporation to half the amount: 8 min
Compound: CCO [95% ethanol, ethanol]
